Laboratory results as given in PMC7355942, “Cytotoxicity Evaluation of Novel bis(2-aminoethyl)amine Derivatives” (Molecules, 2020).

Tests used:
[1] = test system: A549 cells (epithelial lung carcinoma); assay: MTT cytotoxicity assay, A549; type: cell-based, human; details: for IC50: A549, MTT, mean ± SD; for SI (Selectivity Index): IC50 for normal cell line (HaCaT)/IC50 A549
Source text: (§1) All derivatives of bis(2-aminoethyl)amine were screened for their in vitro cytotoxic activity against a panel of human cancer cell lines, namely colorectal adenocarcinoma (CaCo-2), epithelial lung carcinoma (A549), and melanoma (HTB-140), which is contrary to normal (HaCaT) cell lines, by using the MTT method.
(§2) Description related to conducted biological studies including cell culture, suitable conditions, and methodology was presented in our previous paper.

HTB-140 cells (melanoma) = assay: MTT cytotoxicity assay, HTB-140; type: cell-based, human; details: for IC50: HTB-140, MTT, mean ± SD; for SI (Selectivity Index): IC50 for normal cell line (HaCaT)/IC50 HTB-140
Source text: as §1, §2

[2] = test system: HaCaT cells (immortal keratinocytes); assay: MTT cytotoxicity assay, HaCaT normal cells; type: cell-based, human; details: mean ± SD
Source text: as §1, §2

[3] = test system: CaCo-2 cells (colorectal adenocarcinoma); assay: MTT cytotoxicity assay, CaCo-2; type: cell-based, human; details: for IC50: Homo sapiens, CaCo-2, MTT, mean ± SD; for SI (Selectivity Index): IC50 for normal cell line (HaCaT)/IC50 CaCo-2
Source text: as §1, §2

[4] = test system: panel of human cancer cell lines (CaCo-2, A549, HTB-140) and normal HaCaT cells; assay: MTT cytotoxicity assay, statements over the whole cell panel; type: cell-based; details: for antiproliferative / cytotoxic activity in words: chosen cancer and normal cell lines; for IC50: Homo sapiens, all cancer cell lines (CaCo-2, A549, HTB-140), read-out: IC50, range over cancer cell lines
Source text: as §1, §2

[5] = test system: HaCaT cells (normal keratinocytes); assay: Lactate dehydrogenase (LDH) release assay, HaCaT; type: cell-based, human; details: 72 h
Method: (§3) Lactate dehydrogenase assay (LDH) as a marker of cell death was evaluated for synthesized ethylthioureas 1–7. The compounds were tested at concentrations of 10, 50, and 100 µM. At the lowest dose, no activity was observed.
as §2
(§4) Figure 6 LDH release as a marker of a cell death in the HaCaT, HTB-140, CaCo-2, A549 cells, treated for 72 h with various concentrations of derivatives 3–6 (100 µM for compounds 3–5, 100 and 50 µM for 6). Data are expressed as the mean ± SD from three independent experiments, performed in triplicate. *** p ≤ 0.001, ** p ≤ 0.01, as compared to the control.

A549 cells = assay: Apoptosis, Annexin V-FITC/7-AAD flow cytometry, A549; type: cell-based, human; details: A549, IC50 concentration, 72 h
Method: (§5) To establish in vitro, the anti-proliferative mechanism of activity, the influence of bis(2-aminoethyl)amine derivatives on early and late apoptosis was performed, using flow cytometry analysis (Figure 7).
as §2
(§6) Figure 7 The effect of derivatives 3–6 on early and late apoptosis, or necrosis in HaCaT, CaCo-2, A549, and HTB-140 cells. Cells were incubated for 72 h with tested compounds and used in their IC50 concentrations. Then cells were harvested, stained with Annexin V-FITC and 7-AAD, and analyzed using flow cytometry. Data are expressed as the percentage of cells at an early stage of apoptosis or late stage of apoptosis or necrosis. Data are given as means ± SD, *** p ≤ 0.001, ** p ≤ 0.01, as compared to the control.
Figure 8 The effect of compounds 3–6 on early and late apoptosis or necrosis in A549 cells, detected with Annexin V-FITC/7-AAD by flow cytometry. […] The upper right and upper left quadrants represent the late stage of apoptotic or necrotic cells (Annexin V-FITC positive, 7-AAD positive, Annexin V-FITC negative and 7-AAD positive staining, respectively). The lower left quadrant represents unstained A549 cells (Annexin V-FITC negative, 7-AAD negative). TEXT PRINTED IN THE PICTURE: 3: 0,1; 26,6; 36,9; 36,5 | 4: 0,1; 23,4; 47,2; 29,3 | 5: 0,2; 42,5; 28,4; 28,9 | 6: 0,2; 37,6; 19,5; 42,7 DOUBTS OF THE COPYIST ABOUT THIS PICTURE: 3, lower left quadrant value: 36,9, printed over the dot cloud, so the digits 6 and 9 are not fully certain / 6, lower left quadrant value: 19,5, partly printed over the dot cloud, so the digits 9 and 5 are not fully certain / The quadrant numbers are printed with no measure or unit. They are listed in the order upper left, upper right, lower left, lower right / The Control plot (0,1; 5,2; 87,4; 7,3) was left out because it is not a substance

[6] = test system: interleukin-6 (IL-6) release, A549 cells; assay: Interleukin-6 assay (ELISA), A549; type: cell-based, human; details: A549, IC50 dose
Source text: (§7) The mechanism of cytotoxic action of bis(2-aminoethyl)-amine derivatives can be associated with reducing interleukin-6 (IL-6) levels, which include the strong pro-inflammatory particles.
as §2
(§8) Figure 9 Effects of compounds 3–6 on IL-6 levels, measured by the ELISA test. Data are expressed as the mean ± SD from three independent experiments, performed in triplicate. *** p ≤ 0.001, ** p ≤ 0.01, * p ≤ 0.05, as compared to the control.

HTB-140 cells = assay: Apoptosis, Annexin V-FITC/7-AAD flow cytometry, HTB-140; type: cell-based, human; details: HTB-140, IC50 concentration, 72 h
Method: as §5, §2, §6

CaCo-2 cells = assay: Apoptosis, Annexin V-FITC/7-AAD flow cytometry, CaCo-2; type: cell-based, human; details: CaCo-2, IC50 concentration, 72 h
Method: as §5, §2, §6

[7] = test system: HaCaT, HTB-140, CaCo-2, A549 cells; assay: Lactate dehydrogenase (LDH) release assay, statements over several cell lines; type: cell-based, human; details: pathological cell lines (HTB-140, CaCo-2, A549), 50 µM, 72 h
Method: as §3, §2, §4

[8] = test system: interleukin-6 (IL-6) secretion, HTB-140 cells; assay: Interleukin-6 assay (ELISA), HTB-140; type: cell-based, human; details: HTB-140, IC50 dose
Source text: as §7, §2, §8

Structure (SMILES) | IC50 [3] | IC50 ([1]; Homo sapiens) | IC50 (HTB-140 cells (melanoma); Homo sapiens) | IC50 ([2]; Homo sapiens) | antiproliferative / cytotoxic activity in words [4] | SI (Selectivity Index) [3] | SI (Selectivity Index) [1] | SI (Selectivity Index) (HTB-140 cells (melanoma)) | late apoptosis (A549 cells) | further results
N.N.[Cl][Pt][Cl] [Cisplatin, reference compound] | – | – | – | – | – | – | – | – | – | IC50 [1]: 1.95 ± 0.83 µM; IC50 (HTB-140 cells (melanoma)): 1.13 ± 0.19 µM; IC50 [2]: 2.84 ± 1.06 µM
COc1ccc(NC(=S)NCCN(CCNC(=S)Nc2ccc(OC)cc2)C(=S)Nc2ccc(OC)cc2)cc1 [Compound 1, 3-(4-methoxyphenyl)-1,1-bis{2-[3-(4-methoxyphenyl)-thioureido]ethyl}thiourea] | > 100 µM | > 100 µM | > 100 µM | > 100 µM | biologically inactive | – | – | – | – | –
S=C(NCCN(CCNC(=S)Nc1ccccc1)C(=S)Nc1ccccc1)Nc1ccccc1 [Compound 2, 3-phenyl-1,1-bis[2-(3-phenylthioureido)ethyl]thiourea] | > 100 µM | > 100 µM | > 100 µM | > 100 µM | biologically inactive | – | – | – | – | –
S=C(NCCN(CCNC(=S)Nc1ccc(Cl)cc1)C(=S)Nc1ccc(Cl)cc1)Nc1ccc(Cl)cc1 [Compound 3, 3-(4-chlorophenyl)-1,1-bis{2-[3-(4-chlorophenyl)thioureido]ethyl}thiourea] | 27.7 ± 3.7 µM | 25 ± 2.4 µM | 22.6 ± 2 µM | 29.9 ± 1.8 µM | – | 1.08 | 1.19 | 1.32 | 23.5% | IC50 [4]: 22.6 to 27.7 µM; LDH release ([5]; 100 µM): 13.8%; decrease of the IL-6 concentration ([6]; versus control): 1.7 times
S=C(NCCN(CCNC(=S)Nc1ccc(Br)cc1)C(=S)Nc1ccc(Br)cc1)Nc1ccc(Br)cc1 [Compound 4, 3-(4-bromophenyl)-1,1-bis{2-[3-(4-bromophenyl)thioureido]ethyl}thiourea] | 17.2 ± 1.9 µM | 16.8 ± 1.9 µM | 14.7 ± 1.5 µM | 19.3 ± 3.5 µM | – | 1.12 | 1.15 | 1.35 | 26.7% | early apoptosis (HTB-140 cells): 28.6%; inhibition of interleukin release as compared to the control, in words [6]: tenfold
Fc1ccc(NC(=S)NCCN(CCNC(=S)Nc2ccc(F)c(Cl)c2)C(=S)Nc2ccc(F)c(Cl)c2)cc1Cl [Compound 5, 3-(3-chloro-4-fluorophenyl)-1,1-bis{2-[3-(3-chloro-4-fluorophenyl)thioureido]ethyl}thiourea] | 17.9 ± 2.8 µM | 15.4 ± 2.1 µM | 14.8 ± 3.2 µM | 18.8 ± 4.3 µM | – | 1.05 | 1.21 | 1.27 | 42.7% | late apoptosis (CaCo-2 cells): 32.8%
S=C(NCCc1ccccc1)NCCN(CCNC(=S)NCCc1ccccc1)C(=S)NCCc1ccccc1 [Compound 6, 3-phenethyl-1,1-bis[2-(3-phenethylthioureido)ethyl]thiourea] | 15.7 ± 1.7 µM | 15 ± 1.7 µM | 14 ± 2.5 µM | 16.1 ± 5.7 µM | – | 1.02 | 1.08 | 1.16 | 37.8% | IC50 [4]: 14 to 15.7 µM; LDH release ([5]; 50 µM): 8.3%; LDH release ([5]; 100 µM): 17.9%; LDH secretion [7]: 8.09–10.4%; early apoptosis (CaCo-2 cells): 55.7%; inhibition of IL-6 secretion, in words [8]: two-fold
COc1ccc(NC(=S)N(CCNc2nnnn2-c2ccc(OC)cc2)CCNc2nnnn2-c2ccc(OC)cc2)cc1 [Compound 7, 3-(4-methoxyphenyl)-1,1-bis(2-{[1-(4-methoxyphenyl)-1H-tetrazol-5-yl]amino}ethyl)thiourea] | > 100 µM | > 100 µM | > 100 µM | > 100 µM | biologically inactive | – | – | – | – | –
COc1cccc2c1C(=O)c1c(O)c3c(c(O)c1C2=O)C[C@@](O)(C(=O)CO)C[C@@H]3O[C@H]1C[C@H](N)[C@H](O)[C@H](C)O1 [Doxorubicin, reference compound] | 0.53 ± 0.23 µM | 0.63 ± 0.21 µM | 0.47 ± 0.18 µM | 1.09 ± 0.23 µM | – | 2.06 | 1.73 | 2.32 | – | –
